System: auditory hair cells of organ of Corti (OC) explants
Experiment: Protection of auditory hair cells from gentamicin-induced loss in organ of Corti explant culture (hair cell counting, basal turn)
Format: cell-based, C57bl/6j mice
Conditions: for loss of hair cells / hair cells lost / protection from loss of hair cells: 24 hours; for loss of hair cells: p5 mouse OC explants, basal turn; for protection against gentamicin-induced loss of hair cells (in words): Example 1: 5 μM pioglitazone, 30 μM pamapimod, or both, with gentamicin, 24 hr in culture
Experimental: All animal procedures were carried out according to protocols approved by the Kantonales Veterinäramt, Basel, Switzerland. Postnatal day 5 (p5) C57bl/6j were used for the studies. Studies were performed in vitro, using organ of Corti (OC) explants from p5 animals. Animals were sacrificed and the cochleae carefully dissected to separate the organ of Corti from the spiral ganglion, stria vascularis and Reissner's membrane [Sobkowicz H M, Loftus J M, Slapnick S M. Acta Otolaryngol Suppl. 1993; 502:3-36].
OCs were harvested and then placed in culture medium [Dulbecco's Modified Eagle Medium supplemented with 10% FCS, 25 mM HEPES and 30 U/ml penicillin (Invitrogen, Carlsbad, 20 CA, USA)] and incubated for 24 hours at 37° C. in an atmosphere of 95% O2/5% CO2. After that period, the culture medium was replaced with fresh medium containing no compound or 50 μM gentamicin alone or 50 μM gentamicin with either 5 μM pioglitazone, 30 μM pamapimod, or 5 μM pioglitazone+30 μM pamapimod, and incubated for a further 24 hours at 37° C. Ten OC explants were used for each treatment condition.
After incubation with compounds, the OCs were fixed in 4% paraformaldehyde, washed and then stained with a fluorescein (FITC)-conjugated phalloidin to detect inner and outer hair cells. After staining, the OCs were visualized and photographed using a fluorescence microscope (Olympus FSX100). Auditory hair cells were quantified for the basal turn of each organ of Corti in 3 fields corresponding to 80 hair cells each. The average values for the three fields were then averaged for the 10 OCs used for each condition. Significant differences between treatment groups in numbers of hair cells were determined using analysis of variance (ANOVA) followed by the least significant difference (LSD) post-hoc test (Stat View 5.0). Differences associated with P values of less than 0.05 were considered to be statistically significant. All data are presented as mean±SD.
OCs were harvested and then placed in culture medium [Dulbecco's Modified Eagle Medium supplemented with 10% FCS, 25 mM HEPES and 30 U/ml penicillin (Invitrogen, Carlsbad, 20 CA, USA)] and incubated for 24 hours at 37° C. in an atmosphere of 95% O2/5% CO2. After that period, the culture medium was replaced with fresh medium containing no compound or 100 µM gentamicin alone or 100 μM gentamicin with either 1 μM pioglitazone, 1 μM pamapimod, or 1 μM pioglitazone+1 μM pamapimod, and incubated for a further 24 hours at 37° C. The gentamicin concentration of 100 μM was determined as that concentration that leads to 50% loss of hair cells. Batch to batch variation in the activity of gentamicin requires that the concentration used for specific experiments leading to 50% hair cell loss be predefined in pilot experiments for each batch. Ten OC explants were used for each treatment condition.

Molecule | loss of hair cells (Example 1, FIG. 1: 50 μM gentamicin alone) | loss of hair cells (Example 2, FIG. 2: 100 μM gentamicin alone) | hair cells lost (Example 1, FIG. 1: 30 μM pamapimod (micronized, Dv50=3 μm) with 50 μM gentamicin) | protection against gentamicin-induced loss of hair cells (in words) | protection from loss of hair cells (Example 2, FIG. 2: 1 μM pamapimod with 100 μM gentamicin) | hair cells lost (Example 1, FIG. 1: 5 μM pioglitazone (micronized, Dv50=4 μm) with 50 μM gentamicin) | protection from loss of hair cells (Example 2, FIG. 2: 1 μM pioglitazone with 100 μM gentamicin)
gentamicin | approximately 50% | approximately 50% | – | – | – | – | –
Cn1c(=O)c(Oc2ccc(F)cc2F)cc2cnc(NC(CCO)CCO)nc21 [pamapimod, 6-(2,4-Difluorophenoxy)-2-[3-hydroxy-1-(2-hydroxyethyl)-propylamino]-8-methyl-8H-pyrido[2,3-d]pyrimidin-7-one] | – | – | approximately 20% | partially prevented the loss of hair cells | approximately 30% | – | –
CCc1ccc(CCOc2ccc(CC3SC(=O)NC3=O)cc2)nc1 (centres unmarked) [pioglitazone] | – | – | – | partially prevented the loss of hair cells | – | approximately 20% | approximately 40%

From US20190209568A1, “METHOD OF PREVENTING OR TREATING HEARING LOSS” (SUPPORT-VENTURE GMBH, priority 2016, published 2019)
